# Results from patent publication US6911443B2 (Bayer Aktiengesellschaft, priority 2000, dated 2005).
# Target: T1, human Syk (GST-Syk) (Homo sapiens, UniProt P43405)
# T1 construct: A cDNA fragment encoding human Syk openreading frame was cloned; made in house; host or cells: Sf21 insect cells (baculovirus, transfer vector pAcG2T)
# Assay: Syk tyrosine kinase inhibitory assay
# Assay type: biochemical
# Conditions: Table 11; read-out: Activity grade
# Method in brief: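 Readout: streptavidin-captured biotin-AL peptide probed with europium-4G10 anti-phosphotyrosine, time-resolved fluorescence (ex 340/em 615 nm). Reaction ran 1 h at room temperature with 30 μM ATP, 3 μM peptide, 0.65 nM Sf21-expressed GST-Syk and 0.25% DMSO, pH 8.0.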
row,IC50 [nM],Structure (SMILES)
1,< 500,COc1ccc(-c2cc3nccn3c(Nc3cccc(N)n3)n2)cc1OC [Example 12-29]
2,< 500,COc1ccc(-c2cc3nccn3c(Nc3ccc(Cl)nc3)n2)cc1OC [Example 12-30]
3,500 to 2000,COc1ccc(-c2cc3nccn3c(NC3=NNCS3)n2)cc1OC [Example 12-31]
4,< 500,COc1cc(-c2cc3nccn3c(Nc3ccccc3)n2)ccc1OC(C)=O [Example 12-33]
5,< 500,COc1cc(-c2cc3nccn3c(Nc3ccccc3)n2)ccc1OCCCN1CCN(C)CC1 [Example 12-36]
6,< 500,COc1ccc(Nc2nc(-c3ccc(NCCCN4CCOCC4)c(OC)c3)cc3nccn23)cc1 [Example 12-38]
7,< 500,COc1cc(-c2cc3nccn3c(Nc3ccccc3)n2)ccc1NCCCN1CCCC1=O [Example 12-40]
8,< 500,COCCN(C)c1ccc(-c2cc3nccn3c(Nc3ccccc3)n2)cc1OC [Example 12-41]
9,< 500,COCCN(C)c1ccc(-c2cc3nccn3c(Nc3ccc(C)cc3)n2)cc1OC [Example 12-42]
10,< 500,COCCN(C)c1ccc(-c2cc3nccn3c(Nc3ccc(C(F)(F)F)cc3)n2)cc1OC [Example 12-43]
11,< 500,COCCN(C)c1ccc(-c2cc3nccn3c(Nc3ccccc3S(C)(=O)=O)n2)cc1OC [Example 12-44]
12,< 500,COc1cc(-c2cc3nccn3c(Nc3ccc(C)cc3)n2)ccc1N1CCOCC1 [Example 12-47]
13,< 500,COc1cc(-c2cc3nccn3c(Nc3ccc(Cl)cn3)n2)ccc1N1CCOCC1 [Example 12-48]
14,< 500,CCSc1nc(-c2ccc(N(C)CCOC)c(OC)c2)cc2nccn12 [Example 12-50]
15,< 500,COCCN(C)c1ccc(-c2cc3nccn3c(Nc3ccc(OC)cc3)n2)cc1OC [Example 12-51]
16,< 500,COc1cc(-c2cc3nccn3c(Nc3ccc(Br)cc3)n2)ccc1N1CCOCC1 [Example 12-53]
17,< 500,COc1cc(-c2cc3nccn3c(Nc3ccccc3)n2)ccc1N1CCOCC1 [Example 12-54]
18,< 500,COc1cc(-c2cc3nccn3c(Nc3cccc(S(C)(=O)=O)c3)n2)ccc1N1CCOCC1 [Example 12-60]
19,500 to 2000,COc1ccc(-c2cc3nccn3c(Nc3cnccc3C(N)=O)n2)cc1OC [Example 12-61]

# Second part, the compound before the results:
row,Structure (SMILES),IC50 [nM]
1,COc1ccc(-c2cc3nccn3c(Nc3ccccc3)n2)cc1[N+](=O)[O-] [Example 12-32],< 500
2,COc1cc(-c2cc3nccn3c(Nc3ccccc3)n2)ccc1OCCCN1CCSCC1 [Example 12-34],< 500
3,CCN(CC)CCOc1ccc(-c2cc3nccn3c(Nc3ccccc3)n2)cc1OC [Example 12-35],2000 to 10000
4,COc1ccc(Nc2nc(-c3ccc(N4CCOCC4)c(OC)c3)cc3nccn23)cc1 [Example 12-37],< 500
5,COc1cc(-c2cc3nccn3c(Nc3ccccc3)n2)ccc1NCCCN1CCN(C)CC1 [Example 12-39],< 500
6,COc1ccc(-c2cc3nccn3c(Nc3cnccc3C(N)=O)n2)cc1OC [Example 12-45],< 500
7,COCCN(C)c1ccc(-c2cc3nccn3c(Nc3ccc(Br)cc3)n2)cc1OC [Example 12-46],< 500
8,COc1cc(-c2cc3nccn3c(Nc3ccc(C(F)(F)F)cc3)n2)ccc1N1CCOCC1 [Example 12-49],< 500
9,COc1ccc(Nc2nc(-c3ccc(N(C)C)c(OC)c3)cc3nccn23)cc1 [Example 12-52],< 500
10,COc1ccc(Nc2nc(-c3ccc(N(C)CCCN4CCOCC4)c(OC)c3)cc3nccn23)cc1 [Example 12-55],< 500
11,COCCCN(C)c1ccc(-c2cc3nccn3c(Nc3ccc(OC)cc3)n2)cc1OC [Example 12-56],< 500
12,COc1cc(-c2cc3nccn3c(Nc3ccccc3S(C)(=O)=O)n2)ccc1N1CCOCC1 [Example 12-57],< 500
13,COc1cc(-c2cc3nccn3c(Nc3ccc4cn[nH]c4c3)n2)ccc1N1CCOCC1 [Example 12-59],< 500
